Drawing on patent publication US9012443B2 (Amgen Inc., priority 2011, dated 2015), this text covers IC50 for 23 compounds.

The target of assay [1] is T1, Nav 1.7 (Homo sapiens (Human), UniProt Q15858). As to the kind of experiment: Nav 1.7 IWQ in vitro assay (IonWorks Quattro population patch-clamp). The class given is cell-based. To be noted: 293 cells stably transfected with Nav 1.7; second part of table; read-out: Nav1.7 IWQ IC50 IP. The method, boiled down:
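HEK293 cells stably expressing Nav 1.7, recorded by automated population patch-clamp with a train of depolarizations producing increasing inactivation. Single compound concentration added during 3–8 min unclamped period, then same protocol repeated. Leak-corrected current at 26th pulse to −20 mV gave percent block (duplicate); IC50 fitted from concentration–block curves.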
On the technique in general: The patch-clamp technique gives a direct electrical read-out from membranes.

The target of assay [2] is T1, Nav 1.7. Briefly: Nav 1.7 in vitro PX assay (PatchXpress whole cell voltage clamp). It is filed as cell-based. The following applies: 293 cells, human Nav1.7, partially inactivated state; read-out: Nav1.7 PX IC50 IP. Put shortly:
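HEK293 cells stably expressing human Nav1.7, whole-cell voltage clamp on PatchXpress, held at potential giving 20–50% inactivation; current elicited by 20 msec pulse to −10 mV.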

T1 sequence (Q15858 whole entry): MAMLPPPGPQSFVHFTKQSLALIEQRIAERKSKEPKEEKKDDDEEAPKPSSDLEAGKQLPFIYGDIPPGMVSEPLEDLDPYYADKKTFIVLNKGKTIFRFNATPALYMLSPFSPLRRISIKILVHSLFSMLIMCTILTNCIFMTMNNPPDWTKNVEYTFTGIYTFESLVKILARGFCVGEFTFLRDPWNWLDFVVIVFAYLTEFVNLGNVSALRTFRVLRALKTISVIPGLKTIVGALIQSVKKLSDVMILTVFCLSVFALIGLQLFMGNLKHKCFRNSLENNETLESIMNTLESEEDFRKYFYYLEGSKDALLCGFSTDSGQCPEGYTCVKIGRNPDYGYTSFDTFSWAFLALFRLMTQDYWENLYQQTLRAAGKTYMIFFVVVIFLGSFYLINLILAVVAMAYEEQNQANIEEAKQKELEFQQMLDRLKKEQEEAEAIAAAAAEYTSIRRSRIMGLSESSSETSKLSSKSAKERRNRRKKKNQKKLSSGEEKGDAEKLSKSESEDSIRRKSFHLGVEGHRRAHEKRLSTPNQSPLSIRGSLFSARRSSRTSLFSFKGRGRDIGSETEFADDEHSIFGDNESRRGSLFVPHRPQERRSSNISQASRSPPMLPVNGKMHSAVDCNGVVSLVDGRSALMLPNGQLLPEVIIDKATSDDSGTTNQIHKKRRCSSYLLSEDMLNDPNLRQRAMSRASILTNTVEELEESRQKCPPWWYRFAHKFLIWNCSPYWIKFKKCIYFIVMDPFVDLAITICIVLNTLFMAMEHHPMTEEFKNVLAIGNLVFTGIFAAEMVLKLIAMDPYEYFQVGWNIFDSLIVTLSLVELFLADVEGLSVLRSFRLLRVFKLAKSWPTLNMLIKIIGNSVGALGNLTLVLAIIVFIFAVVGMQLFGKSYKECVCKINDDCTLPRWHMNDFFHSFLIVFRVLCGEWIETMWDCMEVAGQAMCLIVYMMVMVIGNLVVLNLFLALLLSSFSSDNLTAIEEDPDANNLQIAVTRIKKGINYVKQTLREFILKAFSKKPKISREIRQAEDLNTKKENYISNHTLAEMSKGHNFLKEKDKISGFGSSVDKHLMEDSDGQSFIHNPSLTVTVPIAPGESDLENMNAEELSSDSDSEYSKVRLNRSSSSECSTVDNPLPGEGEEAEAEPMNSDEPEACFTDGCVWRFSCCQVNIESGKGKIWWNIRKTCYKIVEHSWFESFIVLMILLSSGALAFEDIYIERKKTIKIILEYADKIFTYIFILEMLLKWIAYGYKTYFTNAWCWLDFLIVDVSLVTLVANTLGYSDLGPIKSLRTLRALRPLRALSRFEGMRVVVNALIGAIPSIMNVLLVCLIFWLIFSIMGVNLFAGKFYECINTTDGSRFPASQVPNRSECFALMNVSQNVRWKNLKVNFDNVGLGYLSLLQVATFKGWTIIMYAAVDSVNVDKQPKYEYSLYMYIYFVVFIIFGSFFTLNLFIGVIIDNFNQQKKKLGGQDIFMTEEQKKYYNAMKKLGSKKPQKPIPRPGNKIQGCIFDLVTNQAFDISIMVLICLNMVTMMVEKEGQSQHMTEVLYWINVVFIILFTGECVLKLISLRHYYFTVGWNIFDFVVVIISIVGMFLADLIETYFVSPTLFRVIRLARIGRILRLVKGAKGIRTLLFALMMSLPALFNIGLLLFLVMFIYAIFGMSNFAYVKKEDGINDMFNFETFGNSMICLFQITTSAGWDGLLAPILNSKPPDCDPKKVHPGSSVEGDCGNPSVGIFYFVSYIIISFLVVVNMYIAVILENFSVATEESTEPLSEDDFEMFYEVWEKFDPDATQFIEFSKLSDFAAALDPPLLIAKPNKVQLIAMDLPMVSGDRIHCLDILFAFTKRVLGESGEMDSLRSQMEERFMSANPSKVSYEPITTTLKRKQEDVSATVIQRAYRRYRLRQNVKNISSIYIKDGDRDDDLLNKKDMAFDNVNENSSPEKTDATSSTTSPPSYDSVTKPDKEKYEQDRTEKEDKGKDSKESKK

Consider `COc1cc(C(F)(F)F)ccc1-c1ncc(F)c2cc(S(=O)(=O)Nc3ccncn3)ccc12` [Example 216, 4-FLUORO-1-(2-METHOXY-4-(TRIFLUOROMETHYL)PHENYL)-N-(PYRIMIDIN-4-YL)ISOQUINOLINE-6-SULFONAMIDE], for which the IC50 – broadly, the concentration needed to halve the response being measured – on Nav 1.7 [1] is 40 nM; at Nav 1.7 [2], 559 nM.
As for `COc1cc(Cl)ccc1-c1ncc(F)c2cc(S(=O)(=O)Nc3ccncn3)ccc12` [Example 217, 1-(4-CHLORO-2-METHOXYPHENYL)-4-FLUORO-N-(PYRIMIDIN-4-YL)ISOQUINOLINE-6-SULFONAMIDE], the IC50 is 40 nM on Nav 1.7 [1] and 692 nM on Nav 1.7 [2].
In the case of `COc1cc(C#N)ccc1-c1ncc(F)c2cc(S(=O)(=O)Nc3ccncn3)ccc12` [Example 218, 1-(4-cyano-2-methoxyphenyl)-4-fluoro-N-(pyrimidin-4-yl)isoquinoline-6-sulfonamide], the IC50 at Nav 1.7 [1] was 70 nM; at Nav 1.7 [2], 4630 nM.
With `COc1cc(C(F)(F)F)ccc1-c1nc(Cl)cc2cc(S(=O)(=O)Nc3nccs3)ccc12` [Example 219, 3-CHLORO-1-(2-METHOXY-4-(TRIFLUOROMETHYL)PHENYL)-N-(THIAZOL-2-YL)ISOQUINOLINE-6-SULFONAMIDE], the figures for the IC50 at Nav 1.7 [1] and at Nav 1.7 [2] were 170 nM and 796 nM, respectively.
The corresponding values for `COc1cc(C(F)(F)F)ccc1-c1nc(C#N)cc2cc(S(=O)(=O)Nc3nccs3)ccc12` [Example 220, 3-CYANO-1-(2-METHOXY-4-(TRIFLUOROMETHYL)PHENYL)-N-(THIAZOL-2-YL)ISOQUINOLINE-6-SULFONAMIDE] are 60 nM and 450 nM.
Consider `COc1cc2cc(S(=O)(=O)Nc3nccs3)ccc2c(-c2ccc(C(F)(F)F)cc2OC)n1` [Example 221, 3-METHOXY-1-(2-METHOXY-4-(TRIFLUOROMETHYL)PHENYL)-N-(THIAZOL-2-YL)ISOQUINOLINE-6-SULFONAMIDE], for which the IC50 at Nav 1.7 [1] was 110 nM; at Nav 1.7 [2], 1530 nM.
Take `CNc1cc2cc(S(=O)(=O)Nc3nccs3)ccc2c(-c2ccc(C(F)(F)F)cc2OC)n1` [Example 222, 1-(2-METHOXY-4-(TRIFLUOROMETHYL)PHENYL)-3-(METHYLAMINO)-N-(THIAZOL-2-YL)ISOQUINOLINE-6-SULFONAMIDE]: the IC50 on Nav 1.7 [1] is 20 nM; at Nav 1.7 [2], 905 nM.
Consider `COc1cc(C(F)(F)F)ccc1-c1nc(N(C)C)cc2cc(S(=O)(=O)Nc3nccs3)ccc12` [Example 223, 3-(DIMETHYLAMINO)-1-(2-METHOXY-4-(TRIFLUOROMETHYL)PHENYL)-N-(THIAZOL-2-YL)ISOQUINOLINE-6-SULFONAMIDE], for which the IC50 on Nav 1.7 [1] was 1100 nM; on Nav 1.7 [2], 6520 nM.
In the case of `COc1cc(C(F)F)ccc1-c1nccc2cc(S(=O)(=O)Nc3nccs3)ccc12` [Example 224, 1-(4-(DIFLUOROMETHYL)-2-METHOXYPHENYL)-N-(THIAZOL-2-YL)ISOQUINOLINE-6-SULFONAMIDE], the IC50 worked out at 20 nM at Nav 1.7 [1] and 313 nM on Nav 1.7 [2].
For the compound `COCc1cc(C(F)(F)F)ccc1-c1nccc2cc(S(=O)(=O)Nc3nccs3)ccc12` [Example 225, 1-(2-(METHOXYMETHYL)-4-(TRIFLUOROMETHYL)PHENYL)-N-(THIAZOL-2-YL)ISOQUINOLINE-6-SULFONAMIDE], the IC50 at Nav 1.7 [1] was 30 nM; on Nav 1.7 [2], 741 nM.
Consider `COC(=N)c1cc(C(F)(F)F)ccc1-c1nccc2cc(S(=O)(=O)Nc3nccs3)ccc12` [Example 226, METHYL 2-(6-(N-(THIAZOL-2-YL)SULFAMOYL)ISOQUINOLIN-1-YL)-5-(TRIFLUOROMETHYL)BENZIMIDATE], for which the IC50 on Nav 1.7 [1] stood at 90 nM; at Nav 1.7 [2], 600 nM.
Regarding `NC(=O)c1cc(C(F)(F)F)ccc1-c1nccc2cc(S(=O)(=O)Nc3nccs3)ccc12` [Example 227, 2-(6-(N-(THIAZOL-2-YL)SULFAMOYL)ISOQUINOLIN-1-YL)-5-(TRIFLUOROMETHYL)BENZAMIDE], the IC50 worked out at 110 nM on Nav 1.7 [1] and 2270 nM at Nav 1.7 [2].
Turning to `O=S(=O)(Nc1nccs1)c1ccc2c(-c3ccc(C(F)(F)F)cc3F)nccc2c1` [Example 228, 1-(2-FLUORO-4-(TRIFLUOROMETHYL)PHENYL)-N-(THIAZOL-2-YL)ISOQUINOLINE-6-SULFONAMIDE], the IC50 at Nav 1.7 [1] was 110 nM; on Nav 1.7 [2], 1520 nM.
Regarding `O=S(=O)(Nc1nccs1)c1ccc2c(-c3ccc(C(F)(F)F)cc3-n3ccnc3)nccc2c1` [Example 229, 1-(2-(1H-IMIDAZOL-1-YL)-4-(TRIFLUOROMETHYL)PHENYL)-N-(THIAZOL-2-YL)ISOQUINOLINE-6-SULFONAMIDE], the IC50 is 10 nM on Nav 1.7 [1] and 420 nM at Nav 1.7 [2].
In the case of `O=S(=O)(Nc1nccs1)c1ccc2c(-c3ccc(C(F)(F)F)cc3CC(O)CO)nccc2c1` (stereo not shown) [Example 230, 1-(2-(2,3-DIHYDROXYPROPYL)-4-(TRIFLUOROMETHYL)PHENYL)-N-(THIAZOL-2-YL)ISOQUINOLINE-6-SULFONAMIDE 2,2,2-TRIFLUOROACETATE], the concentration for half-maximal inhibition (IC50) on Nav 1.7 [1] turned out to be 30 nM; at Nav 1.7 [2] it was 590 nM.
As for `COc1cc(C(F)(F)F)ccc1-c1ncc(OC)c2cc(S(=O)(=O)Nc3nccs3)ccc12` [Example 231, 4-METHOXY-1-(2-METHOXY-4-(TRIFLUOROMETHYL)PHENYL)-N-(THIAZOL-2-YL)ISOQUINOLINE-6-SULFONAMIDE 2,2,2-TRIFLUOROACETATE], the values for the half-inhibitory concentration (IC50) on Nav 1.7 [1] and at Nav 1.7 [2] were 40 nM and 270 nM, respectively.
The corresponding values for `O=S(=O)(Nc1nccs1)c1ccc2c(-c3ccc(C(F)(F)F)cc3Br)nccc2c1` [Example 235, 1-(2-BROMO-4-(TRIFLUOROMETHYL)PHENYL)-N-(THIAZOL-2-YL)ISOQUINOLINE-6-SULFONAMIDE] are 50 nM and 150 nM.
For the compound `O=S(=O)(Nc1ncns1)c1ccc2c(N3CCCC3c3ccccc3)nccc2c1` (stereo not shown) [Example 236, 1-(2-PHENYLPYRROLIDIN-1-YL)-N-(1,2,4-THIADIAZOL-5-YL)ISOQUINOLINE-6-SULFONAMIDE], the IC50 on Nav 1.7 [1] came out at 130 nM; at Nav 1.7 [2], 430 nM.
Take `O=S(=O)(Nc1nccs1)c1ccc2c(N3CCCC3c3ccccc3)nccc2c1` (stereo not shown) [Example 237, 1-(2-PHENYLPYRROLIDIN-1-YL)-N-(THIAZOL-2-YL)ISOQUINOLINE-6-SULFONAMIDE]: the IC50 is 740 nM on Nav 1.7 [1] and 1230 nM on Nav 1.7 [2].
`O=S(=O)(Nc1nccs1)c1ccc2c(N3CCC[C@@H]3c3ccccc3)nccc2c1` [Example 238, (R)-1-(2-phenylpyrrolidin-1-yl)-N-(thiazol-2-yl)isoquinoline-6-sulfonamide]: the 50% inhibitory concentration (IC50) at Nav 1.7 [1] is 140 nM; on Nav 1.7 [2], 770 nM.
The corresponding values for `O=S(=O)(Nc1nccs1)c1ccc2c(N3CCC[C@H]3c3ccccc3)nccc2c1` [Example 239, (S)-1-(2-PHENYLPYRROLIDIN-1-YL)-N-(THIAZOL-2-YL)ISOQUINOLINE-6-SULFONAMIDE] are 1450 nM and 4590 nM.
The corresponding values for `COc1cc(C(F)(F)F)ccc1-c1ncc(C#N)c2cc(S(=O)(=O)Nc3nccs3)ccc12` [Example 240, 4-CYANO-1-(2-METHOXY-4-(TRIFLUOROMETHYL)PHENYL)-N-(THIAZOL-2-YL)ISOQUINOLINE-6-SULFONAMIDE] are 190 nM and 390 nM.
For the compound `COc1cc(Cl)ccc1-c1ncc(C#N)c2cc(S(=O)(=O)Nc3nccs3)ccc12` [Example 241, 1-(4-chloro-2-methoxyphenyl)-4-cyano-N-(thiazol-2-yl)isoquinoline-6-sulfonamide], the figures for the half-maximal inhibitory concentration (IC50) at Nav 1.7 [1] and at Nav 1.7 [2] were 240 nM and 480 nM, respectively.
